Structures can show the parent of a compound that is named as a salt.
Key:
[1] = In vivo pharmacokinetic study in rats, oral dosing (Example 7); details: rat, 200 mg/kg PO; for AUC(0-inf) / Cmax / Tmax / half-life: in vivo, mean; for AUC0-∞ value relative to 4-hydroxybutyric acid, sodium salt: sodium salts
Method: In a separate study, the pharmacokinetics of exemplary compounds IV-a, IV-b and IV-d was determined by comparison with 4-hydroxybutyric acid by dosing the compounds in rats orally. The study design was the same as for Example 6, except that sampling time points were as follows: predose, 5 min, 15 min, 30 min, 1 hour, 2 hours, 3 hours, 4 hours, and 5 hours (the 5 hour levels were not included in the for PK calculations). The results of the in vivo studies are disclosed in the following table (Table 3): […]

[2] = In vivo pharmacokinetic study in rats, IV and PO dosing (Example 6); details: rat; for AUC(0-inf) / clearance / concentration at 2 hr / half-life / Vd / Cmax / Tmax / concentration at 4 hr / bioavailability: plasma; for Vd: read-out: Vz; for concentration at 4 hr: Cmin at 4 hr; for bioavailability: 200 mg/kg, PO vs IV AUC0-∞
Method: The pharmacokinetics of exemplary compounds was determined by comparison with 4-hydroxybutyric acid by dosing the compounds in rats according to the following study design and sampling procedure.
The results of the in vivo studies are disclosed in the following table (Table 2): […]

[3] = in humans; cited from earlier work
[4] = 200 mg/kg IV, mean, Cmin at 2 hr
[5] = 200 mg/kg IV, mean, calculated up to 2 hr
[6] = 200 mg/kg PO, mean, calculated up to 4 hr

## [2H]C([2H])(O)CC([2H])([2H])C(=O)[O-].[Na+] [IV-b, sodium salt, Sodium 2,2,4,4-d4-4-hydroxybutanoate]
[1]
  AUC(0-inf): 407 µg·h/mL
  Cmax: 201 µg/mL
  Tmax: 90 min
  half-life: 27.6 min
  AUC0-∞ fold versus 4-hydroxybutyric acid, sodium salt: (2.5X)
  Cmax fold versus 4-hydroxybutyric acid, sodium salt: (2.1X)
  AUC0-∞ value relative to 4-hydroxybutyric acid, sodium salt: considerably increased
[2]; 200 mg/kg IV, mean
  AUC(0-inf): 651 µg·h/mL
  clearance: 5 mL/min/kg
  Vd: 0.3 L/kg
[2]; [4]
  concentration at 2 hr: 76 µg/mL
[2]; [5]
  half-life: 37.8 min
[2]; 200 mg/kg PO, mean
  AUC(0-inf): 260 µg·h/mL
  Cmax: 151 µg/mL
  Tmax: 37.8 min
  concentration at 4 hr: 5 µg/mL
[2]; [6]
  half-life: 56.4 min
[2]
  bioavailability: 40%
[2]; 200 mg/kg PO
  AUC0-∞ fold versus 4-hydroxybutyric acid, sodium salt: (+1.5X)
[2]; from AUC0-∞ and t1/2 following IV administration
  pharmacokinetic stability relative to 4-hydroxybutyric acid, sodium salt: considerably increased

## [2H]C([2H])(O)C([2H])([2H])C([2H])([2H])C(=O)O [IV-d, sodium salt]
[1]
  AUC(0-inf): 404 µg·h/mL
  Cmax: 188 µg/mL
  Tmax: 100 min
  half-life: 27.6 min
  AUC0-∞ fold versus 4-hydroxybutyric acid, sodium salt: (2.4X)
  Cmax fold versus 4-hydroxybutyric acid, sodium salt: (2.0X)
  AUC0-∞ value relative to 4-hydroxybutyric acid, sodium salt: considerably increased

## O=C(O)CCCO [4-hydroxybutyric acid, sodium salt, sodium salt of 4-hydroxybutyric acid, reference compound]
[1]
  AUC(0-inf): 165 µg·h/mL
  Cmax: 94 µg/mL
  Tmax: 47.4 min
  half-life: 60.6 min
[2]; 200 mg/kg IV, mean
  AUC(0-inf): 427 µg·h/mL
  clearance: 8 mL/min/kg
  Vd: 0.2 L/kg
[2]; [5]
  half-life: 15.6 min
[2]; 200 mg/kg PO, mean
  AUC(0-inf): 170 µg·h/mL
  Cmax: 150 µg/mL
  Tmax: 30 min
  concentration at 4 hr: 2 µg/mL
[2]; [6]
  half-life: 36.6 min
[2]
  bioavailability: 40%
[2]; [4]
  Cmin: 8′ ug/mL
[3]
  half life: 30 to 60 min

## [2H]C([2H])(O)CCC(=O)O [IV-a, sodium salt]
[1]
  AUC(0-inf): 335 µg·h/mL
  Cmax: 168 µg/mL
  Tmax: 70.2 min
  half-life: 28.8 min
  AUC0-∞ fold versus 4-hydroxybutyric acid, sodium salt: (2.0X)
  Cmax fold versus 4-hydroxybutyric acid, sodium salt: (1.8X)
  AUC0-∞ value relative to 4-hydroxybutyric acid, sodium salt: considerably increased

## [2H]C([2H])(CCO)C(=O)[O-].[Na+] [sodium 2,2-dideutero-4-hydroxybutanoate]
[2]; 200 mg/kg IV, mean
  AUC(0-inf): 476 µg·h/mL
  clearance: 7 mL/min/kg
  Vd: 0.2 L/kg
[2]; [4]
  concentration at 2 hr: 19 µg/mL
[2]; [5]
  half-life: 19.8 min
[2]; 200 mg/kg PO, mean
  AUC(0-inf): 193 µg·h/mL
  Cmax: 153 µg/mL
  Tmax: 37.8 min
  concentration at 4 hr: 1 µg/mL
[2]; [6]
  half-life: 35.4 min
[2]
  bioavailability: 41%
[2]; 200 mg/kg PO
  AUC0-∞ fold versus 4-hydroxybutyric acid, sodium salt: (+1.1X)

Source: patent US20150210624A1, “DEUTERATED 4-HYDROXYBUTYRIC ACID ANALOGS” (Concert Pharmaceuticals, Inc., priority 2012, published 2015)
